System: epithelial breast carcinoma cell line (MDAMB-435)
Assay: effect of compounds on growth of epithelial breast carcinoma cell line MDAMB-435 (MTT, 5 days)
Format: cell-based
Conditions: Homo sapiens, MDA-MB-435, 120 h, MDAMB-435 cells, 5 days post drug addition, 0.1% DMSO
Method: The epithelial breast carcinoma cell line (MDAMB-435) was purchased from ATCC (American Type Cell Culture Collection) and was grown in culture in medium as recommended by ATCC. For analysis of the effect of various compounds on growth of these cells, the cells were plated at a concentration of 1500 cells/well in a 96 well tissue culture plate ("test plate). The day after the cells were plated, the compounds to be analyzed were dissolved in 100% DMSO (dimethyl sulfoxide) to yield at 10 mM stock solution. Each compound was diluted in H2 O to 1 mM and was added to triplicate wells in the first row of a 96 well master plate which contains medium to yield a final concentration of 40 μM. The compounds were then serially diluted in medium in the "master plate". The diluted compound(s) were then transferred to test plates containing cells. A row of vehicle "control cells" received DMSO. The final concentration of DMSO in each well was 0.1%. 5 days post drug addition, the plate was analyzed as follows:
MTT (3-(4-5 methyl thiazole-2-yl)-2,5-diphenyl tetrazolium bromide; thiazolyl blue) was added to each well to yield a final concentration of 1 mg/ml. The plate was then incubated at 37° C. for 21/2-3 hours. The MTT containing medium was then removed and 50 μl of 100% ethanol was added to each well to dissolve the formazan. The absorbences were then read using an automated plate reader (Bio-tek microplate reader).
IC50 's were calculated using the Reed and Munsch equation, see Am. J. Hygiene Vol. 27 pgs. 493-497, 1938.

Which IC50 does the source give for Cn1cc(C2=C(c3cn(C)c4cc([N+](=O)[O-])ccc34)C(=O)NC2=O)c2cc([N+](=O)[O-])ccc21 [H NO2 H NO2, 3-(1-methyl-5-nitro-1H-indol-3-yl)-4-(1-methyl-6-nitro-1H-indol-3-yl)-pyrrole-2,5-dione] here?
The IC50 was 830 nM.

Reference: US6228877A, “Substituted pyrroles” (Hoffmann-La Roche Inc., priority 1998, dated 2001)
